In PubChem BioAssay (NCI):
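These data come from cells grown in 96-well plates and exposed to compound for 48 hours at five concentrations. Here, GI50 denotes the concentration required for 50% inhibition of growth. At the TGI there is no net growth.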

What was measured:
Experiment in all cases: NCI-60 cell line screen, 48 h
HT29 colon = tested on: HT29 colon
OVCAR-5 ovarian = tested on: OVCAR-5 ovarian
HL-60(TB) leukemia = tested on: HL-60(TB) leukemia
UACC-257 melanoma = tested on: UACC-257 melanoma
U251 CNS = tested on: U251 CNS
LOX IMVI melanoma = tested on: LOX IMVI melanoma
SF-539 CNS = tested on: SF-539 CNS
HS 578T breast = tested on: HS 578T breast
SK-MEL-2 melanoma = tested on: SK-MEL-2 melanoma
COLO 205 colon = tested on: COLO 205 colon
HCC-2998 colon = tested on: HCC-2998 colon
MALME-3M melanoma = tested on: MALME-3M melanoma
HOP-92 NSCLC = tested on: HOP-92 NSCLC
HCT-15 colon = tested on: HCT-15 colon
DU-145 prostate = tested on: DU-145 prostate
SF-295 CNS = tested on: SF-295 CNS
SF-268 CNS = tested on: SF-268 CNS
OVCAR-3 ovarian = tested on: OVCAR-3 ovarian
HOP-62 NSCLC = tested on: HOP-62 NSCLC
MDA-MB-231 breast = tested on: MDA-MB-231 breast
MOLT-4 leukemia = tested on: MOLT-4 leukemia
SR leukemia = tested on: SR leukemia
BT-549 breast = tested on: BT-549 breast
A549 NSCLC = tested on: A549 NSCLC
NCI/ADR-RES ovarian = tested on: NCI/ADR-RES ovarian
MCF7 breast = tested on: MCF7 breast
T-47D breast = tested on: T-47D breast
A498 renal = tested on: A498 renal
SN12C renal = tested on: SN12C renal

COc1cc(O)c2c(c1)[C@H]1O[C@@H]1C[C@H](O)[C@H](O)C(=O)/C=C\C[C@H](C)OC2=O
TGI (HT29 colon): 13.4 µM | GI50 (OVCAR-5 ovarian): 3.98 µM | TGI (OVCAR-5 ovarian): > 33.3 µM | GI50 (HL-60(TB) leukemia): 0.197 µM | TGI (HL-60(TB) leukemia): > 10.6 µM | GI50 (UACC-257 melanoma): 0.0584 µM | TGI (UACC-257 melanoma): 0.525 µM | GI50 (U251 CNS): 8.57 µM | TGI (U251 CNS): > 33.3 µM | GI50 (LOX IMVI melanoma): 1.25 µM | TGI (LOX IMVI melanoma): > 19.3 µM | GI50 (SF-539 CNS): 4.68 µM | TGI (SF-539 CNS): 12.6 µM | GI50 (HS 578T breast): 5.92 µM | TGI (HS 578T breast): 27 µM | GI50 (SK-MEL-2 melanoma): 1.68 µM | TGI (SK-MEL-2 melanoma): 10.5 µM | GI50 (COLO 205 colon): 0.0226 µM | TGI (COLO 205 colon): 4.02 µM | GI50 (HCC-2998 colon): 4.85 µM | TGI (HCC-2998 colon): 19 µM | GI50 (MALME-3M melanoma): 0.00553 µM | TGI (MALME-3M melanoma): 0.0231 µM | GI50 (HOP-92 NSCLC): 0.176 µM | TGI (HOP-92 NSCLC): 2.88 µM | GI50 (HCT-15 colon): 1.81 µM | TGI (HCT-15 colon): 23.4 µM | GI50 (DU-145 prostate): 3.53 µM | TGI (DU-145 prostate): > 33.3 µM | GI50 (SF-295 CNS): 9.57 µM | TGI (SF-295 CNS): > 33.3 µM | GI50 (SF-268 CNS): 6.54 µM | TGI (SF-268 CNS): > 28.5 µM | GI50 (OVCAR-3 ovarian): 2.49 µM | TGI (OVCAR-3 ovarian): 16.5 µM | GI50 (HOP-62 NSCLC): 8.97 µM | TGI (HOP-62 NSCLC): > 29.7 µM | GI50 (MDA-MB-231 breast): 2.05 µM | TGI (MDA-MB-231 breast): 16.2 µM | GI50 (MOLT-4 leukemia): 2.65 µM | TGI (MOLT-4 leukemia): > 33.3 µM | GI50 (SR leukemia): 3.08 µM | TGI (SR leukemia): > 30.6 µM | GI50 (BT-549 breast): 1.18 µM | TGI (BT-549 breast): 10.7 µM | GI50 (A549 NSCLC): 16.7 µM | TGI (A549 NSCLC): > 33.3 µM | GI50 (NCI/ADR-RES ovarian): 8.56 µM | TGI (NCI/ADR-RES ovarian): > 33.3 µM | GI50 (MCF7 breast): 2.09 µM | TGI (MCF7 breast): > 33.3 µM | GI50 (T-47D breast): 0.774 µM | TGI (T-47D breast): 18.3 µM | GI50 (A498 renal): 1.93 µM | TGI (A498 renal): 9.51 µM | GI50 (SN12C renal): 5.25 µM | TGI (SN12C renal): > 27.7 µM
